Source: patent publication US11878050B2, “Glycoside hydrolases to treat biofilm-associated infections” (priority 2018, dated 2024)

Assays:
[1] = system: bioluminescent P. aeruginosa; assay: Antibiotic protection and infection clearance in vivo (IVIS); parameters: species or system mice
Procedure: Glycoside hydrolase and antibiotic treatments. Established infections were treated via topical application of vehicle control, heat-inactivated GH, antibiotic alone (or in combination with heat-inactivated GH), GH alone, or GH plus antibiotic (meropenem). Briefly, woundbeds were irrigated with a 10% α-amylase and cellulase (in a 1:1 combination) solution in three separate topical infusions with 30 minutes of dwell time for each, with or without antibiotics. Septicemia was determined by monitoring animals for signs of systemic illness (lethargy, loss of appetite, labored breathing, tremors), and moribund mice were euthanized via phenobarbital injection. […] In order to image dispersal in vivo, the inventors used a Lumina II XR In Vivo Imaging System (IVIS®). Mice with established wound infections were administered GH therapy, and imaging occurred immediately following treatment, and every 4-5 hours subsequently. For experiments involving systemic antibiotic therapy, peritoneal dosing of 300 mg/kg meropenem occurred 4 hours prior to, and 8 hours following GH treatment. […]
To test if concurrent systemic or topical antibiotics can protect against dispersal-mediated septicemia, 48-hour chronic wound infections comprised of bioluminescent P. aeruginosa were treated with 10% GH as above, and monitored via IVIS for systemic spread.

biofilms = details: cited from earlier work; for Summary (biofilm-disrupting ability): Table 1, literature
[2] = system: S. aureus and P. aeruginosa polymicrobial biofilms harvested from murine chronic wounds; assay: Ex vivo treatment of murine chronic wound biofilms: biomass degraded; type: cell-based; details: 5% enzyme solutions, 1 hour
Source text: (§1) Murine chronic wound model. A murine chronic wound model has been previously described [Dalton T, Dowd S E, Wolcott R D, Sun Y, Watters C, Griswold J A, et al. An in vivo polymicrobial biofilm wound infection model to study interspecies interactions. PLoS One. 2011; 6(11):e27317. Epub 2011/11/15. Brown R L, Greenhalgh D G. Mouse models to study wound closure and topical treatment of infected wounds in healing-impaired and normal healing hosts. Wound Repair Regen. 1997; 5(2):198-204. Epub 1997/04/01. Rumbaugh K P, Diggle S P, Watters C M, Ross-Gillespie A, Griffin A S, West S A. Quorum sensing and the social evolution of bacterial virulence. Curr Biol. 2009; 19(4):341-5. Epub 2009/02/24, relevant portions incorporated herein by reference]. […] Percent dispersal, percent biomass degraded, and antibiotic tolerance were calculated as with the LWM, described above.
(§2) In order to determine if the results obtained in vitro translated to a more clinically relevant model, the inventors tested the ability of GH solutions to degrade the biomass of, and disperse the cells from, biofilms grown in vivo. […] For analysis of biomass degradation, the inventors measured the weights of the extracted wound-beds before and after treatment with GH, and compared the percent reduction in weight to that of biofilms treated with heat-inactivated GH. […]

[3] = system: S. aureus and P. aeruginosa; assay: Total CFU after GH treatment in vitro (bactericidal activity); type: cell-based; details: 5% GH solutions, 30 minutes
Procedure: (§3) In vitro cell dispersal. To measure percent dispersal in vitro, the wells of a 24-well non-tissue culture treated plate (Falcon®) were inoculated with 1:100 dilutions of overnight cultures of S. aureus and P. aeruginosa, and biofilms were allowed to grow for 48 hours at 37° C., with shaking at 80 rpm. Following incubation, the supernatant was removed, and each well was gently rinsed with PBS to discard any non-attached biomass. Subsequently, wells were treated with enzyme solutions, vehicle, or heat-inactivated controls. Following treatment, the supernatant was removed and centrifuged at 11,000 rcf for 10 minutes in order to pellet the cells. Cell pellets were then re-suspended in PBS for CFU quantification. Biofilm remaining on the wells were dispersed via sonication and suspended in PBS for CFU quantification. Percent bacterial cell dispersal was calculated by finding the quotient of […].

[4] = system: S. aureus and P. aeruginosa biofilms; assay: In vitro well-plate cell dispersal assay; type: cell-based; details: 5% GH solutions, 30 minutes, vs vehicle and heat-inactivated controls
Procedure: as §3

[5] = system: S. aureus and P. aeruginosa biofilms; assay: Crystal violet biomass assay; type: cell-based
Procedure: Crystal violet assay. A traditional in vitro crystal violet (CV) biomass assay was performed by inoculating the wells of a 24-well non-tissue culture treated plate (Falcon®) containing 13 mm plastic cell culture coverslips with 1:100 dilutions of overnight cultures of S. aureus and P. aeruginosa in fresh LB broth, and allowing for 48 hours of growth at 37° C., with shaking at 80 rpm. Planktonic cells were then removed via rinsing with PBS, and the biofilm-coated coverslips were treated with enzyme solutions, vehicle, or heat-inactivated controls. After treatment, the coverslips were rinsed with ddH2O, and the remaining biomass was stained with 1% CV in ddH2O for 20 minutes. Coverslips were then rinsed once more with ddH2O and transferred to fresh wells, in which the CV was eluted in 95% ethanol for 1 hour. The eluted CV from treated vs. untreated samples was quantified via absorbance of 595 nm light in a Synergy H1 Hybrid Reader (Biotek®).

[6] = system: S. aureus and P. aeruginosa biofilms; assay: Lubbock Chronic Wound Biofilm Model (wound-like media); type: cell-based
Source text: Lubbock Chronic Wound Biofilm Model. The Lubbock Chronic Wound Biofilm Model, or Lubbock wound model (LWM), has been previously described [Sun Y, Dowd S E, Smith E, Rhoads D D, Wolcott R D. In vitro multispecies Lubbock chronic wound biofilm model. Wound Repair Regen. 2008; 16(6):805-13. Epub 2009/01/09. DeLeon S, Clinton A, Fowler H, Everett J, Horswill A R, Rumbaugh K P. Synergistic interactions of Pseudomonas aeruginosa and Staphylococcus aureus in an in vitro wound model. Infect Immun. 2014; 82(11):4718-28. Epub 2014/08/27. Dalton T, Dowd S E, Wolcott R D, Sun Y, Watters C, Griswold J A, et al. An in vivo polymicrobial biofilm wound infection model to study interspecies interactions. PLoS One. 2011; 6(11):e27317. Epub 2011/11/15, relevant portions incorporated herein by reference]. Briefly, wound-like media (50% bovine plasma, 45% Bolton broth, 5% laked horse blood) was inoculated with […] bacterial cells, and incubated for 48 hours, statically, at 37° C. […] Percent bacterial cell dispersal was calculated by finding the quotient of […]. Percent biomass degraded was calculated by rinsing to remove the post-treatment supernatant, weighing the remaining biomass, and finding the quotient of the post-treatment biofilm weight divided by the pre-treatment biofilm weight. […]

[7] = system: S. aureus and P. aeruginosa polymicrobial biofilms harvested from murine chronic wounds; assay: Ex vivo treatment of murine chronic wound biofilms: cell dispersal; type: cell-based; details: 5% enzyme solutions, 1 hour, vs vehicle and heat-inactivated controls
Source text: as §1, §2

## C[C@@H](O)[C@H]1C(=O)N2C(C(=O)O)=C(S[C@@H]3CN[C@H](C(=O)N(C)C)C3)[C@H](C)[C@H]12 [meropenem]
[1]; systemic meropenem (300 mg/kg) with 10% GH
  protection against GH dispersal-induced dissemination: prevented dissemination of P. aeruginosa
[1]; topical meropenem (3 mg/ml) with 10% GH
  protection against GH dispersal-induced dissemination: prevented dissemination of P. aeruginosa

## Hyaluronidase [reference compound]
biofilms
  Summary (biofilm-disrupting ability): against HA-containing biofilms, dispersal

## cellulase
[2]
  percent biomass degraded: able to degrade
[3]
  total CFU (supernatant + biofilm), bactericidal activity: no bactericidal activity
[4]
  percent dispersal: significant amount of dispersal
[5]; 0.0025%, 10 minutes
  degradation of pre-formed biofilms (crystal violet): significantly degraded
[5]; 0.25% GH solution, 30 minutes, 48 h biofilms
  biomass of the biofilms (retention of crystal violet stain): significant reduction in biomass
biofilms
  Summary (biofilm-disrupting ability): shown to cause the dispersal of S. aureus
biofilms; literature
  biofilm inhibition / disruption in earlier studies: inhibits biofilm growth by Burkholderia cepacia and Pseudomonas aeruginosa
[6]; 10%, 1 hour, 24-hour-old polymicrobial biofilms
  disassociation of biofilms cultured in wound-like media: completely disassociates
[7]
  percent dispersal: significantly more total cell dispersal

## gentamicin sulfate [reference compound]
[6]; P. aeruginosa and S. aureus co-cultured in the LWM, gentamicin alone
  cells remaining viable after gentamicin treatment: approximately half
